How the values were obtained:
[1] = system: planktonic Pseudomonas aeruginosa; test: MIC on planktonic bacteria (NCCLS dilution method); assay type: cell-based
Protocol: (§1) PY O1: is a cystic Fibrosis clinical mucoid strain of Pseudomonas aeruginosa received from the Erasme Hospital, Brussels.
The determination of the minimal inhibitory concentration (MIC) is performed according to the standard of NCCLS (NCCLS, Methods for dilution Antimicrobial Susceptibility Tests for bacteria that grow aerobically; approved standards, sixth edition, M7-A6, vol. 23 no.2, January 2003.

[2] = In vitro lung deposition, Multistage Liquid Impinger (MLI); assay type: physicochemical; conditions: for lung concentration per capsule: estimated from lung deposition with about 100 ml epithelial liquid in the lung, composition of example 6
Text: The amount of macrolide agent inhaled shall be high enough to affect, in some way, the biofilm. It has to be noted that as the effect of macrolide derivatives on the biofilm is mediated through a non-antibacterial mechanism. […] Nevertheless, it is a another object of the present invention to provide a composition containing high concentrations (or amounts) of each of the aminoglycoside derivative and of the macrolide derivative i.e. at least more than 10%, preferably more than 15%, and more preferably more than 20% of the dry powder composition. It is indeed particularly interesting to achieve high lung doses of those therapeutic agents with the minimum amounts of inhalations because it makes the administration easier and more importantly increase the patient's compliance. It also decreases the nominal dose of each active ingredient and thus the adverse effects linked to these actives. In the present invention, the dry powder inhaler also provides a high Fine Particle Dose (FPD) and Fine Particle […] (FPF) when tested in vitro on a Multistage Liquid Impinger (MLI, Eur. Pharm, 5th Edition, chapter 2.9.18). The FPD and FPF are the parameters that predict in vivo lung deposition.
The in vitro lung deposition test was performed using equipment and conditions as described in the European Pharmacopoeia (5th edition, chapter 2.9.18—apparatus C). This equipment consists of a Multistage Liquid Impinger (MLI) and was operated with an air flow of 100 L/min during a period of time of 2.4 seconds to simulate inhalation capabilities of patients. The quantification of the deposition of each drug on each stage of the MLI was performed by HPLC equipped with a a Corona detector.

[3] = Particle size by laser diffraction; assay type: physicochemical; conditions: micronized, measured by laser diffraction
Text: A dry powder composition for inhalation of tobramycin and clarithromycin was formulated using micronized tobramycin supplied by Teva Plantex (Israel). Clarithromycin was supplied by Teva Plantex (Israel) in a non-micronized form. Clarithromycin was then micronized using the micronizer MC-one® (JetpHarma, Switerland). […] The micronisation parameters were a pressure of 10 bars in the Venturi, a pressure of 8 bars in the ring and a feeding rate of 5 g/minute. The mean particle size of the micronized clarithromycin obtained (measured by laser diffraction) was 1.6 μm.

[4] = system: 12 day biofilm of Pseudomonas aeruginosa; test: Bacterial count (CFU/ml) of 12-day biofilm after 24 hours with the products; assay type: cell-based; conditions: for bacterial count in biofilm (CFU/ml × 10^7): 24 hours; for decrease of the number of CFU/ml of the 12-day biofilm versus the positive control: concentrations of Table 1 (tobramycin 4 μg/ml; clarithromycin 100, 200, 500 μg/ml; combinations)
Text: (§2) Biofilms of Pseudomonas aeruginosa—strain PY O1 were formed according to the methods described by Ceri et al, the calgary biofilm device: new technology for rapid determination of antibiotic susceptibilities of bacterial biofilms, Journal of clinical microbiology, pp. 1771-1776, 1999 and Abdi-Ali et al, bactericidal activity of various antibiotics against biofilm-producing Pseudomonas aeruginosa, International Journal of Antimicrobial Agents 27, 196-200, 2006.
as §1
After having shown that the number of Pseudomonas aeruginosa within the biofilms was stable after 12 days, the products listed in Table 1 were added to the media for the duration of 24 hours. Thereafter the biofilm was rinsed three times with a 0.01 M phosphate buffer adjusted at pH 7.5 in order to remove all cells not bound to the biofilm. The microplate was then placed on ultrasonic bath at 35° C. for 5 minutes to allow the bacteria present in the biofilm to separate from such biofilm. A bacterial count was then performed (number of coloning forming unit CFU/ml). Each experience was done twice and the CFU counting was also repeated twice/experience.

[5] = system: 12 day old Pseudomonas aeruginosa biofilm; test: MIC on 12 day old biofilm; assay type: cell-based
Text: as §2, §1
In a second experiment using the same modus operandi as above, we measured the MIC of Tobramycin on a 12 day old Pseudomonas aeruginosa biofilm. This situation is much closer to the situation observed in vivo in chronic respiratory diseases like Cystic Fibrosis.

[6] = MLI1, example 6 capsule 10 mg/10 mg, MLI 100 L/min
[7] = MLI2, example 6 capsule 10 mg/10 mg, MLI 100 L/min
[8] = MLI3, example 6 capsule 10 mg/10 mg, MLI 100 L/min
[9] = Mean (n = 3), example 6 capsule 10 mg/10 mg, MLI 100 L/min
[10] = composition of example 6, MLI 100 L/min

CC[C@H]1OC(=O)[C@H](C)[C@@H](O[C@H]2C[C@@](C)(OC)[C@@H](O)[C@H](C)O2)[C@H](C)[C@@H](O[C@@H]2O[C@H](C)C[C@H](N(C)C)[C@H]2O)[C@](C)(OC)C[C@@H](C)C(=O)[C@H](C)[C@@H](O)[C@]1(C)O [Clarithromycin]
sensitivity of the bacterium (MIC could not be determined) [1]: not sensitive | Device deposition [2, 6]: 1.155 mg | FPD [2, 6]: 3.14 mg | FPF [2, 6]: 31.4% | Filter deposition [2, 6]: 0.478 mg | Stage 1 deposition [2, 6]: 1.338 mg | Stage 2 deposition [2, 6]: 0.664 mg | Stage 3 deposition [2, 6]: 1.715 mg | Stage 4 deposition [2, 6]: 1.162 mg | Throat deposition [2, 6]: 1.025 mg | Device deposition [2, 7]: 1.048 mg | FPD [2, 7]: 3.76 mg | FPF [2, 7]: 37.6% | Filter deposition [2, 7]: 0.598 mg | Stage 1 deposition [2, 7]: 1.566 mg | Stage 2 deposition [2, 7]: 0.845 mg | Stage 3 deposition [2, 7]: 1.891 mg | Stage 4 deposition [2, 7]: 1.482 mg | Throat deposition [2, 7]: 1.134 mg | Device deposition [2, 8]: 1.433 mg | FPD [2, 8]: 3.98 mg | FPF [2, 8]: 39.9% | Filter deposition [2, 8]: 0.574 mg | Stage 1 deposition [2, 8]: 1.352 mg | Stage 2 deposition [2, 8]: 0.680 mg | Stage 3 deposition [2, 8]: 2.078 mg | Stage 4 deposition [2, 8]: 1.533 mg | Throat deposition [2, 8]: 1.223 mg | Device deposition [2, 9]: 1.212 mg | FPD [2, 9]: 3.63 mg | FPF [2, 9]: 36.3% | Filter deposition [2, 9]: 0.550 mg | Stage 1 deposition [2, 9]: 1.419 mg | Stage 2 deposition [2, 9]: 0.729 mg | Stage 3 deposition [2, 9]: 1.895 mg | Stage 4 deposition [2, 9]: 1.392 mg | Throat deposition [2, 9]: 1.127 mg | FPD/capsule [2, 10]: 3.63 mg | FPF [2, 10]: 36.3% | lung concentration per capsule [2]: 36.3 µg/mL | mean particle size [3]: 1.6 μm | bacterial count in biofilm (CFU/ml × 10^7) ([4]; C 100 μg/ml, 12 day biofilm): 14 CFU × 10^7 | bacterial count in biofilm (CFU/ml × 10^7) ([4]; C 200 μg/ml, 12 day biofilm): 10 CFU × 10^7 | bacterial count in biofilm (CFU/ml × 10^7) ([4]; C 500 μg/ml, 12 day biofilm): 7 CFU × 10^7 | decrease of the number of CFU/ml of the 12-day biofilm versus the positive control [4]: neither tobramycin 4 μg/ml nor clarithromycin at 100, 200 and 500 μg/ml alone are able to decrease the number of CFU/m1

NC[C@H]1O[C@H](O[C@H]2[C@H](O)[C@@H](O[C@H]3O[C@H](CO)[C@@H](O)[C@H](N)[C@H]3O)[C@H](N)C[C@@H]2N)[C@H](N)C[C@@H]1O [Tobramycin]
activity (MIC) on 12 day old biofilm [5]: no longer active | Device deposition [2, 6]: 1.035 mg | FPD [2, 6]: 3.60 mg | FPF [2, 6]: 36% | Filter deposition [2, 6]: 0.664 mg | Stage 1 deposition [2, 6]: 1.760 mg | Stage 2 deposition [2, 6]: 0.614 mg | Stage 3 deposition [2, 6]: 1.512 mg | Stage 4 deposition [2, 6]: 1.598 mg | Throat deposition [2, 6]: 0.929 mg | Device deposition [2, 7]: 0.938 mg | FPD [2, 7]: 4.45 mg | FPF [2, 7]: 44.5% | Filter deposition [2, 7]: 0.838 mg | Stage 1 deposition [2, 7]: 1.837 mg | Stage 2 deposition [2, 7]: 0.726 mg | Stage 3 deposition [2, 7]: 1.818 mg | Stage 4 deposition [2, 7]: 1.965 mg | Throat deposition [2, 7]: 0.859 mg | Device deposition [2, 8]: 1.272 mg | FPD [2, 8]: 4.72 mg | FPF [2, 8]: 47.2% | Filter deposition [2, 8]: 0.778 mg | Stage 1 deposition [2, 8]: 1.546 mg | Stage 2 deposition [2, 8]: 0.606 mg | Stage 3 deposition [2, 8]: 1.895 mg | Stage 4 deposition [2, 8]: 2.202 mg | Throat deposition [2, 8]: 0.771 mg | Device deposition [2, 9]: 1.082 mg | FPD [2, 9]: 4.26 mg | FPF [2, 9]: 42.5% | Filter deposition [2, 9]: 0.760 mg | Stage 1 deposition [2, 9]: 1.714 mg | Stage 2 deposition [2, 9]: 0.648 mg | Stage 3 deposition [2, 9]: 1.742 mg | Stage 4 deposition [2, 9]: 1.922 mg | Throat deposition [2, 9]: 0.853 mg | FPD/capsule [2, 10]: 4.26 mg | FPF [2, 10]: 42.5% | lung concentration per capsule [2]: 42.6 µg/mL | bacterial count in biofilm (CFU/ml × 10^7) ([4]; T 4 μg/ml, 12 day biofilm): 25 CFU × 10^7 | decrease of the number of CFU/ml of the 12-day biofilm versus the positive control [4]: neither tobramycin 4 μg/ml nor clarithromycin at 100, 200 and 500 μg/ml alone are able to decrease the number of CFU/m1 | number of CFU/ml ([4]; tobramycin alone at 4 μg/ml, 12 day biofilm): around 2.5×10^8 CFU/ml

Source: US20100093650A1, “Pharmaceutical Anit-Infective Composition for Inhalation” (LABORATORIES SMB S.A., priority 2006, published 2010)
